Measurements reported in patent publication US20240317775A1, “H4 Antagonist Compounds” (HEPTARES THERAPEUTICS LIMITED, priority 2020, published 2024).

Experiments:
Type in all cases: cell-based
human H4 receptor [1] = target: T1, human H4 receptor (Homo sapiens, UniProt Q9H3N8); test: H4 Antagonist Functional cAMP Gi Assay; conditions: HEKf cells expressing human H4 receptor; functional antagonist pKb by Cheng-Prusoff vs histamine; read-out: Human H4 cAMP fpKb (converted)
T1 construct: expressed in transfected cells; host or cells: HEKf cells infected with baculovirus
Method: HEKf cells were infected overnight using baculovirus expressing the human H4 receptor, then centrifuged at 1,200 rpm for 5 min, frozen in cell freezing medium (Sigma) and stored at −150° C. On the day of assay, the cells were thawed and resuspended in HBSS with 500 nM IBMX to achieve a density of 1,500 cells/well. H4 ligands were prepared in DMSO and stamped by LabCyte ECHO acoustic dispensing at 25 nL in low volume plates. 10 μL/well cells were plated in the presence of 1 μM forskolin, subjected to centrifugation at 1,200 rpm for 1 min and incubated for 30 min prior to addition of Cisbio cAMP detection reagents to a total volume 20 μL/well. […] Following detection reagent addition and shaking at room temperature for 60 min, cAMP accumulation was measured using HTRF on a PheraStar plate reader. EC50 values were generated using a 4-parameter logistical fit equation to quantify agonist potencies. Functional antagonist affinity values were generated using the Cheng-Prusoff equation to calculate a pKb value using the antagonist assay data.

hERG = hERG (Homo sapiens, UniProt Q12809); test: hERG single-concentration assay (QPatch automated patch clamp, CHO cells, 30 μM); conditions: CHO cells stably expressing hERG
Description: Series resistance (4-15 MΩ) was compensated by >80%.

human H4 receptor [2] = target: T1, human H4 receptor; test: H4 Antagonist Functional Dynamic Mass Redistribution Assay; conditions: HEKf cells expressing human H4 receptor; functional antagonist pKb by Cheng-Prusoff vs histamine EC80; read-out: Human H4 DMR fpKb (converted)
Method: HEKf cells were infected using baculovirus expressing the human H4 receptor, plated into fibronectin-coated EPIC plates at a density of 10,000 cells/well and incubated overnight at 37° C. The medium on cells was changed to 30 μL HBSS with 20 mM HEPES per well and 30 nL DMSO were added per well by LabCyte ECHO acoustic dispensing. Following 2 h equilibration at room temperature, 30 nL of H4 ligands prepared in DMSO were stamped by LabCyte ECHO acoustic dispensing into seeded EPIC plates and cellular dynamic mass redistribution was monitored using a Corning EPIC plate reader. Following 45 min measurement, 30 nL/well of histamine EC80 was added and monitored to obtain antagonist assay data. Maximum baseline-corrected responses in pm were used to generate concentration response curves. EC50 values were generated using a 4-parameter logistical fit equation to quantify agonist potencies. Functional antagonist affinity values were generated using the Cheng-Prusoff equation to calculate a pKb value using the antagonist assay data.

T1 sequence (Q9H3N8 whole entry): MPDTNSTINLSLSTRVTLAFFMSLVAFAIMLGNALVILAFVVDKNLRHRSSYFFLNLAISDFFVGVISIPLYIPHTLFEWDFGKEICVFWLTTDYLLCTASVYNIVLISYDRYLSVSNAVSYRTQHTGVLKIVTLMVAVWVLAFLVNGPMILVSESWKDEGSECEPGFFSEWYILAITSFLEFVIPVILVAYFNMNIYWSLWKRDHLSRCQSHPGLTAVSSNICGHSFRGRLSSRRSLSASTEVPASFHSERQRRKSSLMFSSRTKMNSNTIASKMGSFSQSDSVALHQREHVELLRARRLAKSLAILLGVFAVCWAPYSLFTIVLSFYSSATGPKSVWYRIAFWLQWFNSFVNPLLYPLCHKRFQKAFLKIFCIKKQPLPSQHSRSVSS
hERG, sequence (Q12809 whole entry): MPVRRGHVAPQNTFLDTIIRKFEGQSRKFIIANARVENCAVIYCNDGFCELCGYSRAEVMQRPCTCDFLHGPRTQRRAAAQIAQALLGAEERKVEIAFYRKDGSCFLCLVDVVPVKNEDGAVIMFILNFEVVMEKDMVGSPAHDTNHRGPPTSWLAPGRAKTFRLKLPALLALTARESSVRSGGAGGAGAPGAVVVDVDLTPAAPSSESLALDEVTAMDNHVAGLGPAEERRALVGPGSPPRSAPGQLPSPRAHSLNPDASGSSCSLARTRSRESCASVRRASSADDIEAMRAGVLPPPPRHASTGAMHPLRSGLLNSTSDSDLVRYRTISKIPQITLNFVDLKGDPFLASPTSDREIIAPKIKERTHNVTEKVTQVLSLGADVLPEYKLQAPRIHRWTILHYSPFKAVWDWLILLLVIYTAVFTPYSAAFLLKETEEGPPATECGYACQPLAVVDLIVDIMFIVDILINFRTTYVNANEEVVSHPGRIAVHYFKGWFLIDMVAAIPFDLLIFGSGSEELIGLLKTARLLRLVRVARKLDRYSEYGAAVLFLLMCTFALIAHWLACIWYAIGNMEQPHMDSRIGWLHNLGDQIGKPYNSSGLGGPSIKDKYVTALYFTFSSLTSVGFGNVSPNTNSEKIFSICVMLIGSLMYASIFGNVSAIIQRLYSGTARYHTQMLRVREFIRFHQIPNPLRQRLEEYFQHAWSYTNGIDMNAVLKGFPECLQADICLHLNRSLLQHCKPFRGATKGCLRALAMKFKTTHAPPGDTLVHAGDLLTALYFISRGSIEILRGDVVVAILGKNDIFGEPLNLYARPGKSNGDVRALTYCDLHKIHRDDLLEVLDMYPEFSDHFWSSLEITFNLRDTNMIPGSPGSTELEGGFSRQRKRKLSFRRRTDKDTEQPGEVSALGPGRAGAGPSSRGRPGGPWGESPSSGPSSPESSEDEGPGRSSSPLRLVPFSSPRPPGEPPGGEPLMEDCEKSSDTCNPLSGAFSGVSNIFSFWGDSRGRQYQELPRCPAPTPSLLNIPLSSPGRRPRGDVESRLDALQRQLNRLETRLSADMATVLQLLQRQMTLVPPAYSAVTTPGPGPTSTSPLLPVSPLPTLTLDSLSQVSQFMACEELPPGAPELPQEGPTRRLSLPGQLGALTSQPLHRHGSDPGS

| Structure (SMILES) | Kb (human H4 receptor [1]) | inhibition at 30 µM (hERG) | Kb (human H4 receptor [2]) |
| --- | --- | --- | --- |
| CN[C@@H]1CCN(c2nc(N)nc3c2OCCN3)C1 [Example 1-1, (R)-4-(3-(Methylamino)pyrrolidin-1-yl)-7,8-dihydro-6H-pyrimido[5,4-b][1,4]oxazin-2-amine] | 501 nM | 25% | – |
| CC[C@@H]1COc2c(nc(N)nc2N2CC[C@@H](NC)C2)N1 [Example 1-3, (R)-7-Ethyl-4-((R)-3-(methylamino)pyrrolidin-1-yl)-7,8-dihydro-6H-pyrimido[5,4-b][1,4]oxazin-2-amine] | 1 nM | 18% | – |
| CN[C@@H]1CCN(c2nc(N)nc3c2OC[C@H](C(C)C)N3)C1 [Example 1-5, (S)-7-Isopropyl-4-((R)-3-(methylamino)pyrrolidin-1-yl)-7,8-dihydro-6H-pyrimido[5,4-b][1,4]oxazin-2-amine] | 25.1 nM | 68% | – |
| CN[C@@H]1CCN(c2nc(N)nc3c2OCC(C(F)(F)F)N3)C1 (stereo partly drawn) [Example 1-8, 4-((R)-3-(Methylamino)pyrrolidin-1-yl)-7-(trifluoromethyl)-7,8-dihydro-6H-pyrimido[5,4-b][1,4]oxazin-2-amine] | 10 nM | 19% | – |
| CN[C@@H]1CCN(c2nc(N)nc3c2OC[C@@H](COC)N3)C1 [Example 1-9, (R)-7-(Methoxymethyl)-4-((R)-3-(methylamino)pyrrolidin-1-yl)-7,8-dihydro-6H-pyrimido[5,4-b][1,4]oxazin-2-amine] | 10 nM | 12% | – |
| CN[C@@H]1CCN(c2nc(N)nc3c2OC[C@@H]([C@@H](C)OC)N3)C1 [Example 1-10, (S)-7-((R)-1-Methoxyethyl)-4-((R)-3-(methylamino)pyrrolidin-1-yl)-7,8-dihydro-6H-pyrimido[5,4-b][1,4]oxazin-2-amine] | 6.31 nM | 12% | – |
| CN[C@@H]1CCN(c2nc(N)nc3c2OC[C@@H](C(C)(C)OC)N3)C1 [Example 1-12, (S)-7-(2-Methoxypropan-2-yl)-4-((R)-3-(methylamino)pyrrolidin-1-yl)-7,8-dihydro-6H-pyrimido[5,4-b][1,4]oxazin-2-amine] | 2 nM | 8.3% | – |
| CN[C@@H]1CCN(c2nc(N)nc3c2OCC(C)(C)N3)C1 [Example 1-14, (R)-7,7-Dimethyl-4-(3-(methylamino)pyrrolidin-1-yl)-7,8-dihydro-6H-pyrimido[5,4-b][1,4]oxazin-2-amine] | 6.31 nM | 11% | – |
| CN[C@@H]1CCN(c2nc(N)nc3c2OC(C)CN3)C1 (stereo partly drawn) [Example 1-15, 6-Methyl-4-((R)-3-(methylamino)pyrrolidin-1-yl)-7,8-dihydro-6H-pyrimido[5,4-b][1,4]oxazin-2-amine] | 398 nM | 1.5% | – |
| CN[C@@H]1CCN(c2nc(N)nc3c2OCC2CCCN32)C1 (stereo partly drawn) [Example 1-21, 4-((R)-3-(Methylamino)pyrrolidin-1-yl)-6a,7,8,9-tetrahydro-6H-pyrimido[5,4-b]pyrrolo[1,2-d][1,4]oxazin-2-amine] | 12.6 nM | 8.5% | – |
| CN[C@@H]1CCN(c2nc(N)nc3c2OC[C@@]2(C)CCCN32)C1 [Example 1-22, (R)-6a-Methyl-4-((R)-3-(methylamino)pyrrolidin-1-yl)-6a,7,8,9-tetrahydro-6H-pyrimido[5,4-b]pyrrolo[1,2-d][1,4]oxazin-2-amine] | 251 nM | 45% | – |
| Nc1nc2c(c(N3CC[C@@H](N)C3)n1)OCC(C(F)(F)F)N2 (stereo partly drawn) [Example 2-3, 4-((R)-3-Aminopyrrolidin-1-yl)-7-(trifluoromethyl)-7,8-dihydro-6H-pyrimido[5,4-b][1,4]oxazin-2-amine] | 10 nM | 28% | – |
| CNC1CN(c2nc(N)nc3c2OC[C@@H]([C@@H](C)OC)N3)C1 [Example 3-4, (S)-7-((R)-1-Methoxyethyl)-4-(3-(methylamino)azetidin-1-yl)-7,8-dihydro-6H-pyrimido[5,4-b][1,4]oxazin-2-amine] | 12.6 nM | 12% | – |
| CC(C)[C@@H]1COc2c(nc(N)nc2N2CCN(C)CC2)N1 [Example 5-1, (R)-7-Isopropyl-4-(4-methylpiperazin-1-yl)-7,8-dihydro-6H-pyrimido[5,4-b][1,4]oxazin-2-amine] | 3.16 nM | 44% | – |
| CC(C)[C@@H]1COc2c(nc(N)nc2N2CCNCC2)N1 [Example 6-1, (R)-7-Isopropyl-4-(piperazin-1-yl)-7,8-dihydro-6H-pyrimido[5,4-b][1,4]oxazin-2-amine] | 3.98 nM | 13% | – |
| CN[C@@H]1CCN(c2ncnc3c2OC[C@@H](C(C)C)N3)C1 [Example 7-1, (R)-1-((R)-7-Isopropyl-7,8-dihydro-6H-pyrimido[5,4-b][1,4]oxazin-4-yl)-N-methylpyrrolidin-3-amine] | 0.631 nM | 31% | – |
| CN[C@@H]1CCN(c2ncnc3c2OCC(COC)N3)C1 (stereo partly drawn) [Example 7-3, (3R)-1-(7-(Methoxymethyl)-7,8-dihydro-6H-pyrimido[5,4-b][1,4]oxazin-4-yl)-N-methylpyrrolidin-3-amine] | 316 nM | 48% | – |
| CC(C)[C@@H]1COc2c(ncnc2N2CC[C@@H](N)C2)N1 [Example 8-1, (R)-1-((R)-7-Isopropyl-7,8-dihydro-6H-pyrimido[5,4-b][1,4]oxazin-4-yl)pyrrolidin-3-amine] | 5.01 nM | 21% | – |
| CNC1CN(c2ncnc3c2OC[C@@H](C(C)C)N3)C1 [Example 9-1, (R)-1-(7-Isopropyl-7,8-dihydro-6H-pyrimido[5,4-b][1,4]oxazin-4-yl)-N-methylazetidin-3-amine] | 3.98 nM | 18% | – |
| Nc1nc2c(c(N3CC[C@@H](N)C3)n1)OCC1CCCC1N2 (stereo partly drawn) [Example 17-2, 4-[(3R)-3-aminopyrrolidin-1-yl]-6a, 7,8,9,9a, 10-hexahydro-6H-cyclopenta[e]pyrimido[5,4-b][1,4]oxazepin-2-amine] | – | – | 20 nM |
| CN[C@@H]1CCN(c2nc(N)nc3c2OCC2(CCC2)N3)C1 [Example 17-4, 4′-[(3R)-3-(methylamino)pyrrolidin-1-yl]-6′H,8′H-spiro[cyclobutane-1,7′-pyrimido[5,4-b][1,4]oxazin]-2′-amine] | – | – | 2 nM |
| CN[C@@H]1CCN(c2nc(N)nc3c2OCC(C)(C)CN3)C1 [Example 17-5, 7,7-dimethyl-4-[(3R)-3-(methylamino)pyrrolidin-1-yl]-6,7,8,9-tetrahydropyrimido[5,4-b][1,4]oxazepin-2-amine] | – | – | 200 nM |
| CC[C@@H]1CCOc2c(nc(N)nc2N2CC(NC)C2)N1 [Example 17-6, 8-ethyl-4-[3-(methylamino)azetidin-1-yl]-6,7,8,9-tetrahydropyrimido[5,4-b][1,4]oxazepin-2-amine] | – | – | 10 nM |
| CC[C@@H]1CCOc2c(nc(N)nc2N2CC[C@@H](N)C2)N1 [Example 17-7, 4-[(3R)-3-aminopyrrolidin-1-yl]-8-ethyl-6,7,8,9-tetrahydropyrimido[5,4-b][1,4]oxazepin-2-amine] | – | – | 10 nM |
| CC[C@@H]1CCOc2c(nc(N)nc2N2C[C@H]3CCCN[C@H]3C2)N1 [Example 17-8, 8-ethyl-4-[(4aR,7aR)-octahydro-6H-pyrrolo[3,4-b]pyridin-6-yl]-6,7,8,9-tetrahydropyrimido[5,4-b][1,4]oxazepin-2-amine] | – | – | 15.8 nM |
| CCC1(C)CCOc2c(ncnc2N2CC[C@@H](NC)C2)N1 (stereo partly drawn) [Example 17-9, (3R)-1-(8-ethyl-8-methyl-6,7,8,9-tetrahydropyrimido[5,4-b][1,4]oxazepin-4-yl)-N-methylpyrrolidin-3-amine] | – | – | 39.8 nM |
| CCC1(C)CCOc2c(nc(N)nc2N2CC[C@@H](NC)C2)N1 (stereo partly drawn) [Example 17-10, 8-ethyl-8-methyl-4-[(3R)-3-(methylamino)pyrrolidin-1-yl]-6,7,8,9-tetrahydropyrimido[5,4-b][1,4]oxazepin-2-amine] | – | – | 10 nM |
| CN[C@@H]1CCN(c2nc(N)nc3c2OCC2(CCCC2)N3)C1 [Example 17-11, 4′-[(3R)-3-(methylamino)pyrrolidin-1-yl]-6′H,8′H-spiro[cyclopentane-1,7′-pyrimido[5,4-b][1,4]oxazin]-2′-amine] | – | – | 7.94 nM |
| CN[C@@H]1CCN(c2ncnc3c2OCC2(CCCC2)N3)C1 [Example 17-12, (3R)—N-methyl-1-(6′H,8′H-spiro[cyclopentane-1,7′-pyrimido[5,4-b][1,4]oxazin]-4′-yl)pyrrolidin-3-amine] | – | – | 7.94 nM |
| Cc1cc(C)c2nc(-c3cnc(NCCCC4CCN(C)CC4)nc3C)[nH]c2c1 [Toreforant, reference compound] | 20 nM | 89% | – |
